Source: patent publication US4564641A, “Substituted 1-oxo-2-phenyl-2-(2-alkylaminoethyl)-1,2,3,4-tetrahydronaphthalenes, their preparation and their use” (BASF Aktiengesellschaft, priority 1982, dated 1986)
Structures can show the parent of a compound that is named as a salt. Where two headings read alike, the source gives them in different places.

Test system: reserpine-induced hypothermia
Experiment: inhibition of reserpine-induced hypothermia in mice (antidepressant action)
Type: in vivo, mice (Swiss strain)
Conditions: for ED50 (antidepressant action, dose which inhibits the reserpine-induced hypothermia by 50%) / ED50: body temperature two hours after reserpine; for ED50: Mus musculus
Description: The antidepressant action of the substances according to the invention was investigated using the following model:
2.15 mg/kg of reserpine administered subcutaneously to male mice (Swiss strain) weighing 20-26 g lowers the body temperature by an average of 3° C., measured two hours after administration of the reserpine and at an ambient temperature of 20°-22° C. Antidepressants inhibit this hypothermia, the inhibition being dose-dependent. The test substances are administered orally, 60 minutes before the administration of reserpine.
The dose which inhibits the reserpine-induced hypothermia by 50%, ie. the ED50, is determined from the linear regression between log dose (mg/kg) and relative decrease in hypothermia.
In some cases, the activity is substantially greater than that of imipramine (for Example 18c, by a factor of 72).

[1] = male mice (Swiss strain), oral, 60 minutes before 2.15 mg/kg reserpine s.c.
[2] = po, read-out: ED50 (antidepressant action, dose which inhibits the reserpine-induced hypothermia by 50%), male mice (Swiss strain), oral, 60 minutes before 2.15 mg/kg reserpine s.c.
[3] = male mice (Swiss strain), oral, 60 minutes before 2.15 mg/kg reserpine s.c., read-out: ED50 (antidepressant action, dose which inhibits the reserpine-induced hypothermia by 50%)

Structure (SMILES)	ED50 [3]	other results
CN(C)CCC1(c2ccccc2)CCc2ccccc2C1=O (racemic) [Example 18a, 1-oxo-2-phenyl-2-(2-dimethylaminoethyl)-1,2,3,4-tetrahydronaphthalene]	–	ED50 (antidepressant action, dose which inhibits the reserpine-induced hypothermia by 50%) [1]: 0.85 mg/kg
CN(C)CCC1(c2ccccc2)CCc2ccccc2C1=O (racemic) [Example 18c, 1-oxo-2-phenyl-2-(2-dimethylaminoethyl)-1,2,3,4-tetrahydronaphthalene]	–	ED50 (antidepressant action, dose which inhibits the reserpine-induced hypothermia by 50%) [1]: 0.09 mg/kg; activity greater than that of imipramine, by a factor of (ratio of ED50 to imipramine, oral, mice): 72
CN(C)CCC1(c2ccccc2)CCc2ccccc2C1=O (centres unmarked) [Example 1, 1-oxo-2-phenyl-2-(2-dimethylaminoethyl)-1,2,3,4-tetrahydronaphthalene]	–	ED50 [2]: 0.14 mg/kg
Cc1cccc(C2(CCN(C)C)CCc3ccccc3C2=O)c1 (centres unmarked) [Example 2, 1-oxo-2-(3-tolyl)-2-(2-dimethylaminoethyl)-1,2,3,4-tetrahydronaphthalenehydrochloride]	6.8 mg/kg	–
CN(C)CCC1(c2ccc(Cl)cc2)CCc2ccccc2C1=O (centres unmarked) [Example 3, 1-oxo-2-(4-chlorophenyl)-2-(2-dimethylaminoethyl)-1,2,3,4-tetrahydronaphthalene]	4.6 mg/kg	–
CN(C)CCC1(c2ccc(F)cc2)CCc2ccccc2C1=O.Cl (centres unmarked) [Example 5, 1-oxo-2-(4-fluorophenyl)-2-(2-dimethylaminoethyl)-1,2,3,4-tetrahydronaphthalene hydrochloride]	4.9 mg/kg	–
CN(C)CCC1(c2cccc(Cl)c2)CCc2ccccc2C1=O.Cl (centres unmarked) [Example 8, 1-oxo-2-(3-chlorophenyl)-2-(2-dimethylaminoethyl)-1,2,3,4-tetrahydronaphthalene hydrochloride]	5.2 mg/kg	–
CN(C)CCC1(c2ccccc2)CCc2c(Cl)cccc2C1=O (centres unmarked) [Example 12, 1-oxo-5-chloro-2-phenyl-2-(2-dimethylaminoethyl)-1,2,3,4-tetrahydronaphthalene]	0.9 mg/kg	–
COc1cccc(C2(CCN(C)C)CCc3ccccc3C2=O)c1.O=C(O)C(=O)O (centres unmarked) [Example 14, 1-oxo-2-(3-methoxyphenyl)-2-(2-dimethylaminoethyl)-1,2,3,4-tetrahydronaphthalene hydrogen oxalate]	2.3 mg/kg	–
CN(C)CCCN1c2ccccc2CCc2ccccc21 [imipramine, reference compound]	–	ED50 [2]: 6.8 mg/kg
